Test results as given in patent publication US20090163577A1, “METHODS AND COMPOSITIONS FOR ANTAGONIZING ANTI-APOPTOTIC Bcl-2-FAMILY PROTEINS” (Burnham Institute for Medical Research, priority 2007, published 2009).
pIC50: −log10 of the molar value. “Also recorded” adds a separate entry of the source.

Assays:
Bcl-2 = molecular target: T1, Bcl-2 (Homo sapiens, UniProt P10415); test: FPA competitive FITC-Bid BH3 peptide displacement, Bcl-2; assay type: binding
T1 construct: lacking their C-terminal transmembrane domains (last 20 amino-acids) (“ΔTM”); made in house; host or cells: E. coli XL-1 Blue (pGEX 4T-1)
T1 sequence (P10415 1-219 limits assumed): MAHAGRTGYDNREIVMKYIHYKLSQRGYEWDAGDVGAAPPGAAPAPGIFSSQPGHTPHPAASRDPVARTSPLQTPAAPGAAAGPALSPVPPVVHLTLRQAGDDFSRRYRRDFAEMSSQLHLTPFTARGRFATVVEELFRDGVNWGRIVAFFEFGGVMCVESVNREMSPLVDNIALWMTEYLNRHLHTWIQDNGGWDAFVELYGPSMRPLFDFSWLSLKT
Source text: (§1) (A) Structure of gambogic acid.
(§2) Fluorescence Polarization Assays (FPAs).
(§3) Competitive Peptide Displacement Assays.

tumor cell lines = tumor cell lines in culture; cited from earlier work
Bcl-W = molecular target: T2, Bcl-W (Homo sapiens, UniProt Q92843); test: FPA competitive FITC-Bid BH3 peptide displacement, Bcl-W; assay type: binding; settings: 100 nM GST-Bcl-W, 5 nM FITC-Bid BH3 peptide, read-out: IC50 (μM) for Gambogic acid
T2 construct: lacking their C-terminal transmembrane domains (last 20 amino-acids) (“ΔTM”); made in house; host or cells: E. coli XL-1 Blue (pGEX 4T-1)
T2 sequence (Q92843 1-173 limits assumed): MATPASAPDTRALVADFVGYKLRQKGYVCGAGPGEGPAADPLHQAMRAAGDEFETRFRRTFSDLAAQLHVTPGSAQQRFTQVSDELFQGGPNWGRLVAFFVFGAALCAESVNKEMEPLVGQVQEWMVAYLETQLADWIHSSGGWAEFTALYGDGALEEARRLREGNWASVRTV
Source text: as §1, §2, §3

[1] = rats; cited from earlier work
GST-Bcl-XL = molecular target: T3, GST-Bcl-XL (Homo sapiens, UniProt Q07817); test: TR-FRET assay, FITC-Bad BH3 peptide binding to GST-Bcl-XL; settings: 10 nM GST-Bcl-XL, 10 nM FITC-Bad BH3 peptide, read-out: apparent IC50, inhibition of FITC-Bad BH3 peptide binding
T3 construct: lacking their C-terminal transmembrane domains (last 20 amino-acids) (“ΔTM”); made in house; host or cells: E. coli XL-1 Blue (pGEX 4T-1)
T3 sequence (Q07817 1-213 limits assumed): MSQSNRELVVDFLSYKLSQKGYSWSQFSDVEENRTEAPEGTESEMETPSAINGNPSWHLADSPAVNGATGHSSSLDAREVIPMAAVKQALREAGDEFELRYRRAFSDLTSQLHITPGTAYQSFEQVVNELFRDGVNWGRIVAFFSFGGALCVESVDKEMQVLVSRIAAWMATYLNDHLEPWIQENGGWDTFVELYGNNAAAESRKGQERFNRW
Experimental: (A) Binding of GST-Bcl-XL to FITC-BH3 peptide was assayed by TR-FRET. The final reaction mixtures contain 10 nM of FITC-Bad BH3 peptide, 2 nM of anti-GST-Turbium, and various concentrations of GST-Bcl-XL proteins in PBS buffer containing 0.005% Tween 20. (B) Analysis of GA competition with BH3 peptide for Bcl-XL binding by TR-FRET. Reaction mixtures of final 20 μl volume contain 2 μl of various concentrations of GA with 10 nM FITC-Bad BH3 peptide, 2 nM anti-GST-Terbium, and 10 nM GST-Bcl-XL protein in PBS buffer containing 0.005% Tween 20. The mixtures are incubated for 30 min at room temperature. TR-FRET signals were measured using excitation at 330 nm, emission for FITC signal at 490 nm, and emission for terbium signal at 520 nm. Data are presented as 520 nm/490 nm ratio (mean±std dev; n=3).
Time-Resolved-Fluorescence Resonance Energy Transfer (TR-FRET) Assays. For TR-FRET assays, GST-Bcl-XL and anti-GST-terbium (Invitrogen) were mixed together with the FITC-Bad BH3 peptide in PBS containing 0.005% tween 20 in 96 well plates in a total volume of 20 μl per well. […] TR-FRET signals were measured with a SpectraMax M5 plate reader (Molecular Devices) using the following settings: excitation at 330 nm, emission for FITC signal at 490 nm, and emission for terbium signal at 520 nm. […]

bax−/− bak−/− MEFs = test: Cytotoxicity in bax-/- bak-/- MEFs; assay type: cell-based, mouse; settings: 20 hrs; listed as GA
[2] = system: anti-apoptotic Bcl-2-family proteins (Bcl-2, Bcl-XL, Bfl-1, Bcl-W, Mcl-1); test: tBid-induced SMAC release from isolated HeLa mitochondria; assay type: biochemical, human
Experimental: Mitochondria Purification and Protein Release Assays. HeLa cells were pelleted by centrifugation, and then washed once in HM buffer (10 mM HEPES, pH 7.4, 250 mM mannitol, 10 mM KCl, 5 mM MgCl2, 1 mM EGTA), containing 1 mM PMSF and a mixture of protease inhibitors (Roche Molecular Biochemicals). The cell pellet was then homogenized in HM buffer by 50 strokes of a dounce homogenizer, using a B-type pestle. The homogenate was centrifuged twice at 600 g for 5 min to remove nuclei and debris. The resulting supernatant was centrifuged at 10,000 g for 10 min, and the resulting mitochondria-containing pellet was washed twice with the HM buffer.
For mitochondrial protein release assays, 10 μl of mitochondria (50 μg) were added into a final volume of 50 μl HM buffer containing gambogic acid, tBid or tBid pre-incubated with gambogic acid or Bcl-2 family proteins at 30° C. for 15 min. The reactions were further incubated at 30° C. for 40-60 min, then mitochondria were pelleted by centrifugation and the supernatants were collected, boiled in Laemmli sample buffer, and analyzed by SDS-PAGE/immunoblotting using anti-SMAC antibody (Zhai et al., J. Biol. Chem. 280:15815-15824, 2005).
GA neutralizes activity of Bcl-2-family proteins in vitro. An active, N-terminally truncated form of the pro-apoptotic BH3-containing protein Bid (tBid) induces release of apoptogenic proteins such as SMAC from isolated mitochondria in vitro (Becattini et al., Chem. Biol. 11:1107-1117, 2004; Zhai et al., J. Biol. Chem. 280:15815-15824, 2005; Luciano et al., J. Biol. Chem. 280:15825-15835, 2005). […] Samples were centrifuged to generate supernatants that were analyzed by SDS-PAGE/immunoblotting using anti-SMAC antibody. […] Complete restoration was typically achieved with 5 μM GA, representing an approximately 10:1 molar excess of GA relative to anti-apoptotic Bcl-2-family proteins.

Hsp70 = Hsp70 (Homo sapiens, UniProt P0DMV8); test: FPA, FITC-ATP binding to Hsp70; settings: not shown
Hsp70, sequence (P0DMV8 whole entry): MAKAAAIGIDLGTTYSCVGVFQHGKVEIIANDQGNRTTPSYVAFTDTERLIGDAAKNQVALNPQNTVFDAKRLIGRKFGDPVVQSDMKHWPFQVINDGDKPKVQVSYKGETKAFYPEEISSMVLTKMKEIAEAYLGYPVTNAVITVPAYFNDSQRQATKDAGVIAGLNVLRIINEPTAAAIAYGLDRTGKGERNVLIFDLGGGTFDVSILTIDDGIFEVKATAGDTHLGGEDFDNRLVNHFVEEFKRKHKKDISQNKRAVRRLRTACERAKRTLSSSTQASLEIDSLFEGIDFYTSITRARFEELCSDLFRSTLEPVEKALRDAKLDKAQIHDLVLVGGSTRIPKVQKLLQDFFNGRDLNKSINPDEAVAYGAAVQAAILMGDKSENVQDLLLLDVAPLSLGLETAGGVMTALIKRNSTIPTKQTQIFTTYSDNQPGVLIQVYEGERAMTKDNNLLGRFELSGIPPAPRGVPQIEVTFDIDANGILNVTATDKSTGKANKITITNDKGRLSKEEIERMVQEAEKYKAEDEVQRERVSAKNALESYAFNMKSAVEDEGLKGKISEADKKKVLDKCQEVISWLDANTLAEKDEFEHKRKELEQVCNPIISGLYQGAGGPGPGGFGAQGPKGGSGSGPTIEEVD

Bcl-XL = molecular target: T4, Bcl-XL (Homo sapiens, UniProt Q07817); test: FPA competitive FITC-Bid BH3 peptide displacement, Bcl-XL; assay type: binding; settings: 100 nM GST-Bcl-XL, 5 nM FITC-Bid BH3 peptide, read-out: IC50 (μM) for Gambogic acid
T4 construct: lacking their C-terminal transmembrane domains (last 20 amino-acids) (“ΔTM”); made in house; host or cells: E. coli XL-1 Blue (pGEX 4T-1)
T4 sequence (Q07817 1-213 limits assumed): as the sequence (Q07817 1-213 limits assumed) above
Source text: as §1, §2, §3

[3] = system: Bcl-2 over-expressing HL-60 cells; test: Cytotoxicity in NEO-control vs Bcl-2 over-expressing HL-60 cells; assay type: cell-based
Source text: Data are representative of at least 3 independent experiments.
Cell Culture, Transfection, and Apoptosis Assays.
We tested the cytotoxic activity of GA against HL-60 cells that had been stably transfected with NEO-control or Bcl-2-expression plasmids (Konopleva et al., Blood 95:3929-3938, 2000).

Bcl-B = molecular target: T5, Bcl-B (Homo sapiens, UniProt Q9HD36); test: FPA competitive FITC-Bid BH3 peptide displacement, Bcl-B; assay type: binding; settings: 100 nM GST-Bcl-B, 5 nM FITC-Bid BH3 peptide, read-out: IC50 (μM) for Gambogic acid
T5 construct: lacking their C-terminal transmembrane domains (last 20 amino-acids) (“ΔTM”); made in house; host or cells: E. coli XL-1 Blue (pGEX 4T-1)
T5 sequence (Q9HD36 1-184 limits assumed): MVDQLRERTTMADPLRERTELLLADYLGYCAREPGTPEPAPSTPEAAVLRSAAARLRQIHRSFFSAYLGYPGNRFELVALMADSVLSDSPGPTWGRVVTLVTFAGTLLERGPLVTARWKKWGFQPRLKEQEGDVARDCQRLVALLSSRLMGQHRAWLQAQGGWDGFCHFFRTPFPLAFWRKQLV
Source text: as §1, §2, §3

For CC(C)=CCC[C@]1(C)C=Cc2c(O)c3c(c(CC=C(C)C)c2O1)O[C@]12C(=C[C@@H]4C[C@H]1C(C)(C)O[C@@]2(C/C=C(/C)C(=O)O)C4=O)C3=O [Gambogic acid], the IC50 (Bcl-2; 100 nM GST-Bcl-2, 5 nM FITC-Bid BH3 peptide, read-out: IC50 (μM) for Gambogic acid) is given as 1.21 µM, the “sensitivity to displacement of FITC-BH3 peptide among the six proteins” value (Bcl-2; FIG. 1) is given as “the least” and the “concentration required for killing 50% of cells (LD50)” value (tumor cell lines) is given as roughly 1 µM. The IC50 (Bcl-W) was 2.02 µM, the tolerability [1] was “well tolerated” and the pIC50 (GST-Bcl-XL) was 5.82. The “killing of bax−/− bak−/− MEFs” value (bax−/− bak−/− MEFs) was “killed; also recorded: retained cytotoxic activity”, the “concentration for complete restoration of tBid-induced SMAC release” value ([2]; 20 ng tBid, 2 μg Bcl-2-family protein, 50 μg HeLa mitochondria) was 5 µM and the “restoration of tBid-induced SMAC release” value ([2]; recombinant Bcl-2, Bcl-XL, Bfl-1, Bcl-W or Mcl-1 added, listed as GA) was “neutralizes their suppressive effects on mitochondria in a concentration-dependent manner; also recorded: restored tBid-induced SMAC release in a concentration-dependent manner”. For the same molecule, the “tBid-induced release of SMAC” value ([2]; recombinant Bcl-2-family proteins not added) was “enhanced”, the “inhibition of FITC-ATP binding” value (Hsp70) was “did not inhibit” and the IC50 (Bcl-XL) was 1.47 µM. For the same molecule, the “effect of Bcl-2 over-expression on cytotoxicity” value [3] was “reduced the sensitivity” and the IC50 (Bcl-B) was 0.66 µM.
